According to ChEMBL document CHEMBL1132411, “Bis- and mixed-tetrahydroisoquinolinium chlorofumarates: new ultra-short-acting nondepolarizing neuromuscular blockers” (1999):

Key:
Type in all cases: functional, Cercopithecidae
Monkey [1] = assay: Compound was evaluated for the dose producing 95% suppression of the twitch response in male Rhesus Monkey.
Monkey [2] = assay: Compound was evaluated for the time from injection to peak inhibition of the twitch response at the ED95 dose
Monkey [3] = assay: Compound was evaluated for the time from injection to recovery of the twitch to 95% of baseline at the ED95 dose
Monkey [4] = assay: Compound was evaluated for the time from injection to recovery of the twitch to 95% of baseline at 0.4 mg/kg dose
Monkey [5] = assay: Compound was evaluated for the time from injection to peak inhibition of the twitch response at 0.2 mg/kg dose
Monkey [6] = assay: Compound was evaluated for the time from injection to peak inhibition of the twitch response at 0.4 mg/kg dose
Monkey [7] = assay: Compound was evaluated for the time from injection to recovery of the twitch to 95% of baseline at 0.2 mg/kg dose
[8] = Cercopithecidae, in Macaca mulatta, read-out: ED95

| SMILES | ED95 (Monkey [1]; [8]) [mg/kg] | Onset (Monkey [2]) [s] | Duration (Monkey [3]) [min] | also measured |
| --- | --- | --- | --- | --- |
| COc1cc2c(cc1OC)[C@@H](c1cc(OC)c(OC)c(OC)c1)[N@+](C)(CCCOC(=O)/C=C/C(=O)OCCC[N@+]1(C)CCc3cc(OC)c(OC)cc3[C@H]1c1cc(OC)c(OC)c(OC)c1)CC2.[Cl-].[Cl-] | 1.55 | 144 | 25.5 |  |
| COc1cc2c(cc1OC)[C@H](c1cc(OC)c(OC)c(OC)c1)[N@@+](C)(CCCOC(=O)/C=C(\Cl)C(=O)OCCC[N@+]1(C)CCc3cc(OC)c(OC)cc3[C@H]1Cc1cc(OC)c(OC)c(OC)c1)CC2.[Cl-].[Cl-] (stereo in doubt; 6a) [GANTACURIUM CHLORIDE] |  | 88 |  | Duration (Monkey [4]; 0.4 mg/kg): 10 min; ED95 (Monkey [1]): 0.063 mg/kg; Onset (Monkey [5]; 0.2 mg/kg): 38 s; Onset (Monkey [6]; 0.4 mg/kg): 25 s; Duration (Monkey [7]; 0.2 mg/kg): 8.46 min |
| COc1cc2c(cc1OC)[C@@H](Cc1cc(OC)c(OC)c(OC)c1)[N+](C)(CCCOC(=O)CC/C=C/CCC(=O)OCCC[N+]1(C)CCc3cc(OC)c(OC)cc3[C@H]1Cc1cc(OC)c(OC)c(OC)c1)CC2.[Cl-].[Cl-] (stereo partly specified) [MIVACURIUM CHLORIDE] | 0.062 | 107 | 12 |  |
| COc1cc2c(cc1OC)[C@@H](c1cc(OC)c(OC)c(OC)c1)[N@+](C)(CCCOC(=O)/C(Cl)=C/C(=O)OCCC[N@+]1(C)CCc3cc(OC)c(OC)cc3[C@H]1Cc1cc(OC)c(OC)c(OC)c1)CC2.[Cl-].[Cl-] | 0.31 | 37 | 3.7 |  |
| C[N+](C)(C)CCOC(=O)CCC(=O)OCC[N+](C)(C)C.[Cl-].[Cl-] [SUCCINYLCHOLINE CHLORIDE] | 1.29 | 50 | 5 |  |
| COc1cc2c(cc1OC)[C@H](c1cc(OC)c(OC)c(OC)c1)[N@@+](C)(CCCOC(=O)/C(Cl)=C/C(=O)OCCC[N@+]1(C)CCc3cc(OC)c(OC)cc3[C@H]1Cc1cc(OC)c(OC)c(OC)c1)CC2.[Cl-].[Cl-] | 0.25 | 52 | 3.4 |  |
| COc1cc2c(cc1OC)[C@H](c1cc(OC)c(OC)c(OC)c1)[N@@+](C)(CCCOC(=O)/C=C(\Cl)C(=O)OCCC[N@@+]1(C)CCc3cc(OC)c(OC)cc3[C@@H]1c1cc(OC)c(OC)c(OC)c1)CC2.[Cl-].[Cl-] | 8.5 | 55 | 11.2 |  |
| COc1cc2c(cc1OC)[C@H](c1cc(OC)c(OC)c(OC)c1)[N@@+](C)(CCCOC(=O)/C=C(\Cl)C(=O)OCCC[N@+]1(C)CCc3cc(OC)c(OC)cc3[C@H]1Cc1cc(OC)c(OC)c(OC)c1)CC2.[Cl-].[Cl-] (stereo in doubt; 6ab) [GANTACURIUM CHLORIDE] |  | 51 | 5.6 | Duration (Monkey [4]; 0.4 mg/kg): 8.7 min; ED95 (Monkey [1]): 0.163 mg/kg; Onset (Monkey [5]; 0.2 mg/kg): 44 s; Onset (Monkey [6]; 0.4 mg/kg): 27 s; Duration (Monkey [7]; 0.2 mg/kg): 7.1 min |
| COc1cc2c(cc1OC)[C@@H](Cc1cc(OC)c(OC)c(OC)c1)[N@+](C)(CCCOC(=O)/C=C(\Cl)C(=O)OCCC[N@+]1(C)CCc3cc(OC)c(OC)cc3[C@H]1Cc1cc(OC)c(OC)c(OC)c1)CC2.[Cl-].[Cl-] | 0.109 | 73 | 8.7 | Duration (Monkey [4]): 13.4 min; Onset (Monkey [5]): 36 s; Onset (Monkey [6]): 23 s; Duration (Monkey [7]): 9.78 min |
| COc1cc2c(cc1OC)[C@@H](c1cc(OC)c(OC)c(OC)c1)[N@+](C)(CCCOC(=O)/C=C(\Cl)C(=O)OCCC[N@+]1(C)CCc3cc(OC)c(OC)cc3[C@H]1c1cc(OC)c(OC)c(OC)c1)CC2.[Cl-].[Cl-] | 1.79 | 46 | 5.1 |  |
